Assay results: ChEMBL document CHEMBL3259685, “Successful application of serum shift prediction models to the design of dual targeting inhibitors of bacterial gyrase B and topoisomerase IV with improved in vivo efficacy” (Bioorg Med Chem Lett, 2014)
Converted amounts (≈) assume the structure as drawn. The source made the active and inactive calls. The rule behind the calls is not given here.

What was measured:
Staphylococcus aureus [1] = test: Antimicrobial activity against Staphylococcus aureus ATCC 29213 in presence of 50% human serum; assay type: functional
Staphylococcus aureus [2] = test: Antimicrobial activity against Staphylococcus aureus ATCC 29213; assay type: functional
Staphylococcus aureus [3] = test: Antimicrobial activity against Staphylococcus aureus in rat thigh assessed as log reduction of CFU at 3 mg/kg, iv after 8 hrs; assay type: functional
Streptococcus pneumoniae [4] = test: Antimicrobial activity against Streptococcus pneumoniae; assay type: functional
[5] = Volume of distribution at steady state in rat at 2.8 to 9.5 mg/kg, iv; assay type: ADME, organism-based; design: dose 2.8-9.5 mg/kg, route intravenous; details: in vivo, read-out: Vdss
Streptococcus pneumoniae [6] = test: Antimicrobial activity against Streptococcus pneumoniae infected in rat lung infection model assessed as log reduction of bacterial density at 30 mg/kg, po; assay type: functional
[7] = Half life in rat at 2.8 to 9.5 mg/kg, iv; assay type: ADME, organism-based; design: dose 2.8-9.5 mg/kg, route intravenous; details: in vivo
Staphylococcus aureus [8] = test: Antimicrobial activity against Staphylococcus aureus in rat thigh assessed as log reduction of CFU at 30 mg/kg, iv after 8 hrs; assay type: functional
Rattus norvegicus = test: Dose normalized AUC in rat at 2.8 to 9.5 mg/kg, iv; assay type: ADME, organism-based; design: dose 2.8-9.5 mg/kg, route intravenous; details: in vivo
Streptococcus pneumoniae [9] = test: Antimicrobial activity against Streptococcus pneumoniae infected in rat lung infection model assessed as log reduction of bacterial density at 3 mg/kg, po; assay type: functional
Streptococcus pneumoniae [10] = test: Antimicrobial activity against Streptococcus pneumoniae in presence of 50% human serum; assay type: functional
[11] = Clearance in rat at 2.8 to 9.5 mg/kg, iv; assay type: ADME, organism-based; design: dose 2.8-9.5 mg/kg, route intravenous; details: in vivo
Staphylococcus aureus [12] = test: Antimicrobial activity against Staphylococcus aureus ATCC 29213 infected in Sprague-Dawley rat cyclophosphamide-induced neutropenic sepsis model assessed as host survival at 25 mg/kg, iv administered 1 hr after bacterial infection measured up to 120 hrs; details: ATCC 29213, iv
Staphylococcus aureus [13] = test: Antimicrobial activity against Staphylococcus aureus in rat thigh assessed as log reduction of CFU at 50 mg/kg, iv after 6 hrs; assay type: functional
Streptococcus pneumoniae [14] = test: Antimicrobial activity against Streptococcus pneumoniae infected in rat lung infection model assessed as log reduction of bacterial density at 38.5 mg/kg, iv; assay type: functional
Staphylococcus aureus [15] = test: Antimicrobial activity against Staphylococcus aureus at 25 mg/kg, iv

MIC (Staphylococcus aureus [1]) [µg/mL]	MIC (Staphylococcus aureus [2]) [µg/mL]	Structure (SMILES)	MIC (Streptococcus pneumoniae [4]) [µg/mL]	Vd [5] [L/kg]	half-life [7] [min]	AUC/dose (Rattus norvegicus) [µg·h/mL]	fold change (FC) (Streptococcus pneumoniae [10])	clearance [11] [mL/min/kg]	also measured
4	0.125 (≈ 0.36 µM)	CCNC(=O)Nc1nc2cc(-c3cccnc3)cc(-n3cccn3)c2[nH]1							
0.25	0.032 (≈ 0.0735 µM)	CCNC(=O)Nc1nc2cc(-c3cnc(C(C)(C)O)nc3)cc(-c3ncccc3F)c2[nH]1	0.004 (≈ 0.00919 µM)	2.1	72	0.8	8	23	FC (Staphylococcus aureus [3]): 1.7; FC (Streptococcus pneumoniae [6]): 5.8; FC (Staphylococcus aureus [8]): 2.1; FC (Streptococcus pneumoniae [9]): 3.7
0.125	0.5 (≈ 1.2 µM)	CCNC(=O)Nc1nc2cc(-c3ccc(CN(C)C)nc3)cc(-c3ncccn3)c2[nH]1							
0.25	0.125 (≈ 0.334 µM)	CCNC(=O)Nc1nc2cc(-c3ccc(N)nc3)cc(-c3ncccn3)c2[nH]1							
2	0.032 (≈ 0.0782 µM)	CCNC(=O)Nc1nc2cc(-c3cnc4ccccc4c3)cc(-c3ncccn3)c2[nH]1							
0.125	0.125 (≈ 0.262 µM)	CCNC(=O)Nc1nc2cc(-c3cnc(CN4CCOCC4)nc3)cc(-c3ncccc3F)c2[nH]1							
0.25	0.064 (≈ 0.159 µM)	CCNC(=O)Nc1nc2cc(-c3ccc(C(N)=O)nc3)cc(-c3ncccn3)c2[nH]1							
0.625	0.031 (≈ 0.0824 µM)	CCNC(=O)Nc1nc2cc(-c3cccnc3)cc(-c3ncccc3F)c2[nH]1	0.004 (≈ 0.0106 µM)	1.6	42	1.1	20	14	FC (Staphylococcus aureus [13]): 1.5
0.5	0.5 (≈ 1.27 µM)	CCNC(=O)Nc1nc2cc(-c3ccc[n+]([O-])c3)cc(-c3ncccc3F)c2[nH]1							

Structure (SMILES)	MIC (Staphylococcus aureus [1]) [µg/mL]	MIC (Staphylococcus aureus [2]) [µg/mL]	MIC (Streptococcus pneumoniae [4]) [µg/mL]	Vd [5] [L/kg]	half-life [7] [min]	AUC/dose (Rattus norvegicus) [µg·h/mL]	fold change (FC) (Streptococcus pneumoniae [10])	clearance [11] [mL/min/kg]	also measured
CC(=O)NC[C@H]1CN(c2ccc(N3CCOCC3)c(F)c2)C(=O)O1 [LINEZOLID]		1.56 (≈ 4.62 µM)	0.4 (≈ 1.19 µM)	1	42	1.1	1	14.5	Activity (Staphylococcus aureus [3]): inactive; FC (Streptococcus pneumoniae [6]): 4.5; FC (Staphylococcus aureus [8]): 1.4; FC (Streptococcus pneumoniae [9]): 0.8; survival at 25 mg/kg (Staphylococcus aureus [12]): 30%
CCNC(=O)Nc1nc2cc(-c3cccnc3)cc(-c3ccccn3)c2[nH]1	2	0.047 (≈ 0.131 µM)	0.004 (≈ 0.0112 µM)	1.1	126	1.6	43	12.5	FC (Streptococcus pneumoniae [14]): 3; Activity (Staphylococcus aureus [15]): Active; survival at 25 mg/kg (Staphylococcus aureus [12]): 20%
